Test results as given in patent US20230085307A1, “PYRIDAZINONE COMPOUND AND HERBICIDE” (NISSAN CHEMICAL CORPORATION, priority 2019, published 2023).

Experiments:
blackgrass [1] = experiment: Test Example 5: herbicidal effect by foliage application, plastic box (Table 20, symbol J); type: in vivo, blackgrass (Alopecurus myosuroides); conditions: foliage application, 320 g/ha, three weeks after application
Method in brief: (§1)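 Sow seeds spot-wise in sterilized diluvial soil; cover with ~1.5 cm soil. Grow 14 days in greenhouse, 25° C. to 30° C. Spray foliage with emulsion diluted to predetermined amount. Rate effect after 3 weeks.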

barnyard grass [2] = experiment: Test Example 4: herbicidal effect by soil treatment (Table 19, symbol H); type: in vivo, barnyard grass (Echinochloa crus-galli); conditions: amount of applied herbicide 320 g/ha
Method in brief: (§2)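 Applied as a water-diluted emulsion, the compound was sprayed onto soil covering newly sown seeds. Evaluation came three weeks after application, in a greenhouse held at 25° C. to 30° C.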

green foxtail = experiment: Test Example 5: herbicidal effect by foliage application, plastic box (Table 20, symbol G); type: in vivo, green foxtail (Setaria viridis); conditions: foliage application, 320 g/ha, three weeks after application
Method in brief: as §1

redroot pigweed [3] = experiment: Test Example 4: herbicidal effect by soil treatment (Table 19, symbol N); type: in vivo, redroot pigweed (Amaranthus retroflexus); conditions: amount of applied herbicide 320 g/ha
Method in brief: as §2

wild oat = experiment: Test Example 5: herbicidal effect by foliage application, plastic box (Table 20, symbol I); type: in vivo, wild oat (Avena fatua); conditions: foliage application, 320 g/ha, three weeks after application
Method in brief: as §1

Japanese bulrush [4] = experiment: Test Example 1: herbicidal activity, application before weed generation under submerged conditions (Table 16, symbol B); type: in vivo, Japanese bulrush (Schoenoplectus juncoides); conditions: amount of applied herbicide 320 g/ha
Method in brief: (§3)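 Emulsion formulation, water-diluted to set dose, was put onto the flooded surface (4 cm depth, alluvial soil) the same day weeds were sown and 2.5-leaf rice transplanted. After 3 weeks at 25-30 °C under glass, each species was rated 0 (≤5% kill) to 5 (≥90% kill).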

barnyard grass [5] = experiment: Test Example 3: herbicidal effect by foliage application, Wagner pot (Table 18, symbol H); type: in vivo, barnyard grass (Echinochloa crus-galli); conditions: for herbicidal effect on barnyard grass (H): 320 g/ha
Method in brief: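 Plants were sown in alluvial soil held under 0.1–0.5 cm standing water and grown 14 days in a greenhouse at 25–30 °C. An emulsifiable formulation, water-diluted to the set dose, was then sprayed onto the foliage, and effects were scored three weeks later using previously defined criteria.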

late watergrass = experiment: Test Example 2: herbicidal activity, application during weed generation under submerged conditions (Table 17, symbol A); type: in vivo, late watergrass (Echinochloa oryzicola); conditions: AAH 320 g/ha; application during weed generation, submerged conditions
Method in brief: (§4)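 Herbicide emulsion, diluted with water to the chosen amount, is applied onto 4 cm floodwater over alluvial soil where the weeds were co-sown and raised at 25–30° C. Application timing: 1–2 leaves. Assessment: three weeks afterwards.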

chickweed = experiment: Test Example 4: herbicidal effect by soil treatment (Table 19, symbol P); type: in vivo, common chickweed (Stellaria media); conditions: amount of applied herbicide 320 g/ha
Method in brief: as §2

blackgrass [6] = experiment: Test Example 4: herbicidal effect by soil treatment (Table 19, symbol J); type: in vivo, blackgrass (Alopecurus myosuroides); conditions: amount of applied herbicide 320 g/ha
Method in brief: as §2

southern crabgrass [7] = experiment: Test Example 5: herbicidal effect by foliage application, plastic box (Table 20, symbol F); type: in vivo, southern crabgrass (Digitaria ciliaris); conditions: foliage application, 320 g/ha, three weeks after application
Method in brief: as §1

lambsquarters = experiment: Test Example 5: herbicidal effect by foliage application, plastic box (Table 20, symbol O); type: in vivo, lambsquarters (Chenopodium album); conditions: foliage application, 320 g/ha, three weeks after application
Method in brief: as §1

redroot pigweed [8] = experiment: Test Example 5: herbicidal effect by foliage application, plastic box (Table 20, symbol N); type: in vivo, redroot pigweed (Amaranthus retroflexus); conditions: foliage application, 320 g/ha, three weeks after application
Method in brief: as §1

Japanese bulrush [9] = experiment: Test Example 2: herbicidal activity, application during weed generation under submerged conditions (Table 17, symbol B); type: in vivo, Japanese bulrush (Schoenoplectus juncoides); conditions: AAH 320 g/ha; application during weed generation, submerged conditions
Method in brief: as §4

persian speedwell = experiment: Test Example 5: herbicidal effect by foliage application, plastic box (Table 20, symbol R); type: in vivo, Persian speedwell (Veronica persica); conditions: foliage application, 320 g/ha, three weeks after application
Method in brief: as §1

oval-leafed pondweed = experiment: Test Example 1: herbicidal activity, application before weed generation under submerged conditions (Table 16, symbol C); type: in vivo, oval-leafed pondweed (Monochoria vaginalis); conditions: amount of applied herbicide 320 g/ha
Method in brief: as §3

southern crabgrass [10] = experiment: Test Example 4: herbicidal effect by soil treatment (Table 19, symbol F); type: in vivo, southern crabgrass (Digitaria ciliaris); conditions: amount of applied herbicide 320 g/ha
Method in brief: as §2

Row | Compound | J: blackgrass, herbicidal effect grade (blackgrass [1]) | H: barnyard grass, herbicidal effect grade (barnyard grass [2]) | G: green foxtail, herbicidal effect grade (green foxtail) | N: redroot pigweed, herbicidal effect grade (redroot pigweed [3]) | I: wild oat, herbicidal effect grade (wild oat) | Herbicidal effect, B: Japanese bulrush (Japanese bulrush [4]) | herbicidal effect on barnyard grass (H) (barnyard grass [5]) | herbicidal effect rating, A: late watergrass (late watergrass) | P: chickweed, herbicidal effect grade (chickweed) | J: blackgrass, herbicidal effect grade (blackgrass [6]) | F: southern crabgrass, herbicidal effect grade (southern crabgrass [7]) | O: lambsquarters, herbicidal effect grade (lambsquarters) | N: redroot pigweed, herbicidal effect grade (redroot pigweed [8]) | herbicidal effect rating, B: Japanese bulrush (Japanese bulrush [9]) | R: persian speedwell, herbicidal effect grade (persian speedwell) | Herbicidal effect, C: oval-leafed pondweed (oval-leafed pondweed) | F: southern crabgrass, herbicidal effect grade (southern crabgrass [10]) | also measured
1 | CCOc1ccccc1-c1sc2cc(OC)ccc2c1-c1c(O)c(C)nn(CC)c1=O [3-085] | 4 (Herbicidal rate of 70% or more and less than 90%) | 3 (Herbicidal rate of 40% or more and less than 70%) | 4 (Herbicidal rate of 70% or more and less than 90%) | 3 (Herbicidal rate of 40% or more and less than 70%) | 4 (Herbicidal rate of 70% or more and less than 90%) | 5 (Herbicidal rate of 90% or more (almost completely withered)) | 5 (Herbicidal rate of 90% or more (almost completely withered)) | 0 (Herbicidal rate of 5% or less (almost no effect)) | 3 (Herbicidal rate of 40% or more and less than 70%) | 1 (Herbicidal rate of 5% or more and less than 20%) | 5 (Herbicidal rate of 90% or more (almost completely withered)) | 3 (Herbicidal rate of 40% or more and less than 70%) | 5 (Herbicidal rate of 90% or more (almost completely withered)) | 3 (Herbicidal rate of 40% or more and less than 70%) | 5 (Herbicidal rate of 90% or more (almost completely withered)) | 4 (Herbicidal rate of 70% or more and less than 90%) | 4 (Herbicidal rate of 70% or more and less than 90%) | –
2 | CCOc1ccccc1-c1sc2cc(F)ccc2c1-c1c(O)c(C)nn(C)c1=O [3-006] | 5 (Herbicidal rate of 90% or more (almost completely withered)) | – | 5 (Herbicidal rate of 90% or more (almost completely withered)) | – | 5 (Herbicidal rate of 90% or more (almost completely withered)) | 5 (Herbicidal rate of 90% or more (almost completely withered)) | – | 3 (Herbicidal rate of 40% or more and less than 70%) | – | – | 5 (Herbicidal rate of 90% or more (almost completely withered)) | 4 (Herbicidal rate of 70% or more and less than 90%) | 5 (Herbicidal rate of 90% or more (almost completely withered)) | 4 (Herbicidal rate of 70% or more and less than 90%) | 5 (Herbicidal rate of 90% or more (almost completely withered)) | 4 (Herbicidal rate of 70% or more and less than 90%) | – | herbicidal effect, H: barnyard grass (barnyard grass [2]): 5 (Herbicidal rate of 90% or more (almost completely withered)); herbicidal effect, N: redroot pigweed (redroot pigweed [3]): 5 (Herbicidal rate of 90% or more (almost completely withered)); herbicidal effect on H: barnyard grass (barnyard grass [5]; amount of applied herbicide 320 g/ha): 5 (Herbicidal rate of 90% or more (almost completely withered)); herbicidal effect, P: chickweed (chickweed): 5 (Herbicidal rate of 90% or more (almost completely withered)); herbicidal effect, J: blackgrass (blackgrass [6]): 5 (Herbicidal rate of 90% or more (almost completely withered)); herbicidal effect, F: southern crabgrass (southern crabgrass [10]): 5 (Herbicidal rate of 90% or more (almost completely withered))
3 | CCOc1ccc(-c2sc3cc(OC)ccc3c2-c2c(O)c(C)nn(C)c2=O)cc1 [3-072] | 0 (Herbicidal rate of 5% or less (almost no effect)) | 0 (Herbicidal rate of 5% or less (almost no effect)) | 3 (Herbicidal rate of 40% or more and less than 70%) | 2 (Herbicidal rate of 20% or more and less than 40%) | 0 (Herbicidal rate of 5% or less (almost no effect)) | 5 (Herbicidal rate of 90% or more (almost completely withered)) | 4 (Herbicidal rate of 70% or more and less than 90%) | 3 (Herbicidal rate of 40% or more and less than 70%) | 5 (Herbicidal rate of 90% or more (almost completely withered)) | 0 (Herbicidal rate of 5% or less (almost no effect)) | 0 (Herbicidal rate of 5% or less (almost no effect)) | 5 (Herbicidal rate of 90% or more (almost completely withered)) | 5 (Herbicidal rate of 90% or more (almost completely withered)) | 2 (Herbicidal rate of 20% or more and less than 40%) | 5 (Herbicidal rate of 90% or more (almost completely withered)) | 4 (Herbicidal rate of 70% or more and less than 90%) | 0 (Herbicidal rate of 5% or less (almost no effect)) | –
4 | CCOc1ccccc1-c1sc2cc(C)ccc2c1-c1c(O)c(C)nn(C)c1=O [3-053] | 5 (Herbicidal rate of 90% or more (almost completely withered)) | 0 (Herbicidal rate of 5% or less (almost no effect)) | 5 (Herbicidal rate of 90% or more (almost completely withered)) | 3 (Herbicidal rate of 40% or more and less than 70%) | 5 (Herbicidal rate of 90% or more (almost completely withered)) | 5 (Herbicidal rate of 90% or more (almost completely withered)) | 5 (Herbicidal rate of 90% or more (almost completely withered)) | 3 (Herbicidal rate of 40% or more and less than 70%) | 4 (Herbicidal rate of 70% or more and less than 90%) | 3 (Herbicidal rate of 40% or more and less than 70%) | 5 (Herbicidal rate of 90% or more (almost completely withered)) | 5 (Herbicidal rate of 90% or more (almost completely withered)) | 5 (Herbicidal rate of 90% or more (almost completely withered)) | 3 (Herbicidal rate of 40% or more and less than 70%) | 5 (Herbicidal rate of 90% or more (almost completely withered)) | 4 (Herbicidal rate of 70% or more and less than 90%) | 5 (Herbicidal rate of 90% or more (almost completely withered)) | –
